According to US20150011566A1, “N-PHENYLPIPERAZINE DERIVATIVES THAT ARE ANTAGONISTS OF A1A, A1D ADRENOCEPTORS AND 5-HT1A RECEPTORS FOR THE TREATMENT OF BENIGN PROSTATE HYPERPLASIA, PHARMACEUTICAL COMPOSITIONS CONTAINING THE SAME” (UNIVERSIDADE FEDERAL DO RIO DE JANEIRO-UFRJ, priority 2012, published 2015):
Marks after values point to notes of the source that are not given here.

Tests used:
5-HT1A receptors = biological target: T1, 5-HT1A receptors (Homo sapiens, UniProt P08908); experiment: Cell proliferation in vitro, DU-145 cells stimulated with 5-HT (MTT); format: cell-based; settings: for Proliferation percentage in relation to basel (100%) in the presence of LDT's, 5HT1A: 48 h; for inhibition of the effect of the 5-HT1A receptors stimulus on proliferation: LDT3 50 nM, LDT66 20 nM
T1 construct: endogenous in cells; host or cells: DU-145
T1 sequence (P08908 1-422): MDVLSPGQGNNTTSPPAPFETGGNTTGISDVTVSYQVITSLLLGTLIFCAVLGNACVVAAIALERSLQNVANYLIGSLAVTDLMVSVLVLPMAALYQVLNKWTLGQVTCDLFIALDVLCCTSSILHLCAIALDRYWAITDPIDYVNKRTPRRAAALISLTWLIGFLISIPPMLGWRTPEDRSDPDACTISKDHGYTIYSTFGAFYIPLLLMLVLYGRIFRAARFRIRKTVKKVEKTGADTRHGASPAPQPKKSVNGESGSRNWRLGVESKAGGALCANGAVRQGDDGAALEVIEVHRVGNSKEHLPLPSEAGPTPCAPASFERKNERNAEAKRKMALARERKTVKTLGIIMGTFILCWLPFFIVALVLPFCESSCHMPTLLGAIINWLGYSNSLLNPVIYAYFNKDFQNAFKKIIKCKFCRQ
Experimental: Human prostate cancer cells (DU-145) were cultured in medium (RPMI 1640) until confluence. Then the cells were dissociated, plated (5×10^3 cells/well) and maintained in medium free of fetal bovine serum for 24 hours. […] Cell proliferation was assessed by using the MTT technique (MOSMANN, T. Immunol Methods. 16; 65 (1-2):55-63, 1983).

[1] = Acute toxicity test in Swiss mice (body temperature, behaviour for 14 days); format: in vivo; settings: n=6; for T (° C.) Basal Measure: body temperature before treatment; for T (° C.) 30′ after LDT / T (° C.) 60′ after LDT: body temperature, 100 mg/kg ip
Experimental: Swiss mice (female, 25-30 g, 6 animals per condition) were treated with LDT via intraperitoneal with LTD's at a dose of […] and observed for 14 days in the behavioral framework according to described method (LORKE, D., Arch Toxicol, 54 (4): 275-87, 1983, modified). The temperature was measured by retal probe before and after 30 and 60 min of described treatment.

α1D adrenoceptors = biological target: T2, α1D adrenoceptors (Rattus norvegicus, UniProt P23944); experiment: Phenylephrine-induced contraction inhibition in rat aorta (isometric contraction, Schild KB); format: cell-based; settings: ratio of EC50 in presence and absence of test substance, 2 nM
T2 construct: the rat thoracic aorta corresponds to a tissue expressing mainly α1D-adrenoceptors; from tissue; host or cells: rat thoracic aorta rings
T2 sequence (P23944 1-561): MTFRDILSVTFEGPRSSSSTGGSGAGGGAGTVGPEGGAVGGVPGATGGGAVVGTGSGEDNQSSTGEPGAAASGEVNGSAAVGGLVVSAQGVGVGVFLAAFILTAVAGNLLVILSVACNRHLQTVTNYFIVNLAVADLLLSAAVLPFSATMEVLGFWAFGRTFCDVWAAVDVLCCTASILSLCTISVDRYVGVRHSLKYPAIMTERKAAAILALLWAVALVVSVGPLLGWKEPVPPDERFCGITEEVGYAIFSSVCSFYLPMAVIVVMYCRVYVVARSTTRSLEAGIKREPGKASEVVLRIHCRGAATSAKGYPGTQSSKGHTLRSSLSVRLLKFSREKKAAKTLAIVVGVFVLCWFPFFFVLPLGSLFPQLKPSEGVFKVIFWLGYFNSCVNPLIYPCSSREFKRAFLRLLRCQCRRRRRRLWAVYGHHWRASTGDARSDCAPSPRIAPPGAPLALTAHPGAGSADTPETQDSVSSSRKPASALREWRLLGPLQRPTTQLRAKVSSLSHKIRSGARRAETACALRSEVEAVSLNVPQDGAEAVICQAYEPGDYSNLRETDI

[2] = DU-145, 5-HT 1 μM + test substance 50 nM

Structure (SMILES) | Proliferation percentage in relation to basel (100%) in the presence of LDT's, 5HT1A (5-HT1A receptors; [2]) | inhibition of the effect of the 5-HT1A receptors stimulus on proliferation (5-HT1A receptors) | T (° C.) Basal Measure [1] [°C] | T (° C.) 30′ after LDT [1] [°C] | T (° C.) 60′ after LDT [1] [°C] | Proliferation percentage in relation to basel (100%) in the presence of LDT's, 5HT1A (5-HT1A receptors; DU-145, 5-HT 1 μM + test substance 5 nM) [%] | CR ± EPM (α1D adrenoceptors)
COc1cccc(CCN2CCN(c3ccccc3OC)CC2)c1 [LDT 3] | 96.9 ± 5.8^b % | inhibited the effect | 35.33 | 35.50 | 35.50 | – | –
COc1ccc(CCN2CCN(c3ccccc3OC)CC2)cc1OC [LDT 5] | 118.8 ± 9.9% | – | 35.00 | 35.50 | 35.17 | – | –
CCCCCN1CCN(c2ccccc2OC)CC1 [LDT 65] | – | – | 37.17 | 37.17 | 37.17 | – | –
CCOc1ccccc1N1CCN(CCc2ccc3c(c2)OCO3)CC1 [LDT 8] | – | – | 35.67 | 35.67 | 35.50 | 138.4 ± 42.9 | –
CCCCCCN1CCN(c2ccccc2OC)CC1 [LDT 66] | 110.8 ± 7.7^b % | inhibited the effect | 37.00 | 37.50 | 37.33 | – | –
CCOc1ccccc1N1CCN(CCc2ccc(OC)c(OC)c2)CC1 [LDT 245] | – | – | – | – | – | – | 3.9 ± 1.0
